Results: patent publication US8802665B2, “Pyrrolidine derivatives” (Hoffman-La Roche Inc., priority 2012, dated 2014)

target: human Cat S (Homo sapiens (Human), UniProt P25774); assay: Cathepsin enzyme inhibition assay (fluorogenic peptide substrate cleavage); type: biochemical; settings: human Cathepsin S 1 nM, substrate Z-Val-Val-Arg-AMC 20 μM, pH 6.5; read-out: Ic50 CatS: human
Description: Cathepsin Enzyme Inhibition Assay
Enzyme activity is measured by observing the increase in fluorescence intensity caused by cleavage of a peptide substrate containing a fluorophore whose emission is quenched in the intact peptide. • Assay buffer: 100 mM potassium phosphate pH 6.5, EDTA-Na 5 mM, Triton X-100 0.001%, DTT 5 mM. • Enzymes (all at 1 nM): human and mouse Cathepsin S, Cat K, Cat B, Cat L. • Substrate (20 μM): Z-Val-Val-Arg-AMC, except for Cat K which uses Z-Leu-Arg-AMC (both from Bachem). • Z=Benzyloxycarbonyl. • AMC=7-Amino-4-Methyl-Coumarin. • DTT=dithiothreitol. • Final volume: 100 μL. • Excitation 360 nm, Emission 465 nm.
Enzyme is added to the substance dilutions in 96-well microtitre plates and the reaction is started with substrate. Fluorescence emission is measured over 20 minutes, during which time a linear increase is observed in the absence of inhibitor. IC50 are calculated by standard methods.
Inhibition of human Cat S, mouse Cat S, human Cat K, human Cat B, human Cat L and mouse Cat L have been measured separately. The results obtained for human Cat S for representative compounds of the invention are expressed in the following table in μM.

human Cat S, sequence (P25774 115-331): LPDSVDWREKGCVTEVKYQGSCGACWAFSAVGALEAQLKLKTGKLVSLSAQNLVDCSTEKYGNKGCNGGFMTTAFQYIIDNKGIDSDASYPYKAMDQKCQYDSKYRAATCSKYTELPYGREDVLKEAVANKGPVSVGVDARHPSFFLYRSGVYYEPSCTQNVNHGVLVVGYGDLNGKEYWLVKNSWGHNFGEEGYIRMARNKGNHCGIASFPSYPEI

Question: `N#CC1(NC(=O)[C@@H]2C[C@@H](S(=O)(=O)c3ccccc3Cl)CN2C(=O)C2(N3CCC(c4ccccc4)CC3)CC2)CC1` [Example 37, (2S,4R)-4-(2-chlorophenylsulfonyl)-N-(1-cyanocyclopropyl)-1-(1-(4-phenylpiperidin-1-yl)cyclopropanecarbonyl)pyrrolidine-2-carboxamide] was tested. Which IC50 did it give?
Answer: The IC50 was 1.2 nM.

Question: With `CC1CCN(C2(C(=O)N3C[C@H](S(=O)(=O)c4ccccc4Cl)C[C@H]3C(=O)NC3(C#N)CC3)CC2)CC1` [Example 38, (2S,4R)-4-(2-chlorophenylsulfonyl)-N-(1-cyanocyclopropyl)-1-(1-(4-methylpiperidin-1-yl)cyclopropanecarbonyl)pyrrolidine-2-carboxamide] as the compound, how does the IC50 read?
Answer: The IC50 was 0.5 nM.

Question: With `N#CC1(NC(=O)[C@@H]2C[C@@H](S(=O)(=O)c3ccccc3Cl)CN2C(=O)C2(N3CCOCC3)CC2)CC1` [Example 39, (2S,4R)-4-(2-Chlorophenylsulfonyl)-N-(1-cyanocyclopropyl)-1-(1-morpholino-cyclopropanecarbonyl)pyrrolidine-2-carboxamide] as the compound, how does the IC50 read?
Answer: The IC50 was 0.8 nM.

Question: How did the IC50 turn out when `N#CC1(NC(=O)[C@@H]2C[C@@H](S(=O)(=O)c3ccccc3Cl)CN2C(=O)C2(N3CCCCCC3)CC2)CC1` [Example 40, (2S,4R)-1-(1-(Azepan-1-yl)cyclopropanecarbonyl)-4-(2-chlorophenylsulfonyl)-N-(1-cyanocyclopropyl)pyrrolidine-2-carboxamide] was run?
Answer: The IC50 was 0.5 nM.

Question: Which IC50 does the source give for `CC1CCCCN1C1(C(=O)N2C[C@H](S(=O)(=O)c3ccccc3Cl)C[C@H]2C(=O)NC2(C#N)CC2)CC1` (stereo partly drawn) [Example 41, (2S,4R)-4-(2-Chlorophenylsulfonyl)-N-(1-cyanocyclopropyl)-1-(1-(2-methylpiperidin-1-yl)cyclopropanecarbonyl)pyrrolidine-2-carboxamide] here?
Answer: The IC50 was 0.9 nM.

Question: With `N#CC1(NC(=O)[C@@H]2C[C@@H](S(=O)(=O)c3ccc(F)cc3Cl)CN2C(=O)C2(N3CCCCC3)CC2)CC1` [Example 42, (2S,4R)-4-(2-Chloro-4-fluorophenylsulfonyl)-N-(1-cyanocyclopropyl)-1-(1-(piperidin-1-yl)cyclopropanecarbonyl)pyrrolidine-2-carboxamide] as the compound, how does the IC50 read?
Answer: Its IC50 is 0.4 nM.

Question: How did the IC50 turn out when `N#CC1(NC(=O)[C@@H]2C[C@@H](S(=O)(=O)c3cccc(Cl)c3)CN2C(=O)C2(N3CCCCC3)CC2)CC1` [Example 43, (2S,4R)-4-(3-Chlorophenylsulfonyl)-N-(1-cyanocyclopropyl)-1-(1-(piperidin-1-yl)cyclopropanecarbonyl)pyrrolidine-2-carboxamide] was run?
Answer: Its IC50 is 0.3 nM.

Question: `Cc1ccc(S(=O)(=O)[C@@H]2C[C@@H](C(=O)NC3(C#N)CC3)N(C(=O)C3(N4CCCCC4)CC3)C2)cc1` [Example 44, (2S,4R)-N-(1-Cyanocyclopropyl)-1-(1-(piperidin-1-yl)cyclopropanecarbonyl)-4-tosylpyrrolidine-2-carboxamide] was tested. Which IC50 did it give?
Answer: The IC50 was 0.4 nM.

Question: `N#CC1(NC(=O)[C@@H]2C[C@@H](S(=O)(=O)c3ccccc3OC(F)(F)F)CN2C(=O)C2(N3CCCCC3)CC2)CC1` [Example 45, (2S,4R)-N-(1-Cyanocyclopropyl)-1-(1-(piperidin-1-yl)cyclopropanecarbonyl)-4-(2-(trifluoromethoxy)phenylsulfonyl)pyrrolidine-2-carboxamide] was tested. Which IC50 did it give?
Answer: Its IC50 is 0.8 nM.

Question: For `N#CC1(NC(=O)[C@@H]2C[C@@H](S(=O)(=O)c3cccc(C(F)(F)F)c3)CN2C(=O)C2(N3CCCCC3)CC2)CC1` [Example 46, (2S,4R)-N-(1-Cyanocyclopropyl)-1-(1-(piperidin-1-yl)cyclopropanecarbonyl)-4-(3-(trifluoromethyl)phenylsulfonyl)pyrrolidine-2-carboxamide], which IC50 is on record?
Answer: Its IC50 is 0.4 nM.

Question: How did the IC50 turn out when `N#CC1(NC(=O)[C@@H]2C[C@@H](S(=O)(=O)c3ccc(Cl)cc3)CN2C(=O)C2(N3CCCCC3)CC2)CC1` [Example 47, (2S,4R)-4-(4-Chlorophenylsulfonyl)-N-(1-cyanocyclopropyl)-1-(1-(piperidin-1-yl)cyclopropanecarbonyl)pyrrolidine-2-carboxamide] was run?
Answer: The IC50 was 0.8 nM.

Question: Which IC50 does the source give for `CC1(C)CCCN(C2(C(=O)N3C[C@H](S(=O)(=O)c4ccccc4Cl)C[C@H]3C(=O)NC3(C#N)CC3)CC2)C1` [Example 48, (2S,4R)-4-(2-Chlorophenylsulfonyl)-N-(1-cyanocyclopropyl)-1-(1-(3,3-dimethylpiperidin-1-yl)cyclopropanecarbonyl)pyrrolidine-2-carboxamide] here?
Answer: The IC50 was 2.3 nM.
